Values joined by “and” are separate entries in the source; they are usually repeats but may differ in a detail not shown here. Identical values can stand only once.
Key:
Anas platyrhynchos = conditions: short-term; oral; feed; food consumption
Apis mellifera = conditions: acute, mortality
Bibionidae = conditions: chronic/long-term; duration: 23 days; reproduction
Daphnia magna = conditions: chronic/long-term; duration: 21 days; reproduction
Folsomia candida = conditions: chronic/long-term
Oncorhynchus mykiss = conditions: chronic/long-term; duration: 65 days; mortality
Rattus norvegicus = conditions: for NOAEL: chronic
Typhlodromus pyri = experiment: LR50; higher = less toxic; conditions: not reported; reproduction

c1ccc2[nH]c(-c3cscn3)nc2c1 [Thiabendazole]
LC50 (Anas platyrhynchos): > 1290 mg/kg
LD50 (Apis mellifera; dermal): > 34 µg/piece
LD50 (Apis mellifera; oral, unspecified): > 200 µg/piece
NOEC (Bibionidae): 2 mg/L and 3 mg/kg
LD50 (Colinus virginianus; acute, oral): > 2250 mg/kg
NOAEL (Colinus virginianus; reproduction developmental): 34.9 mg/kg-day
NOEC (Daphnia magna): 0.041 mg/L
NOEC (Folsomia candida): 25 mg/kg
NOEC (Oncorhynchus mykiss): 0.012 mg/L
LD50 (Rattus norvegicus; acute): 3100 mg/kg
NOAEL (Rattus norvegicus): 10 mg/kg-day
NOAEL (Rattus norvegicus; duration: 2 years, histopathology: neoplastic): 10 mg/kg-day
NOEL (Rattus norvegicus; reproduction developmental, reproduction): 10 mg/kg-day
LC50 (Tagia sp.; acute, duration: 14 days, mortality): > 224 mg/kg
NOEC (Tagia sp.; chronic/long-term, duration: 8 weeks): 2.1 mg/kg
LR50 (Typhlodromus pyri): > 1800 g/ha

— EPA's ToxValDB 9.5 (doi:10.2903/j.efsa.2014.3880)
